# Target: Fatty acid synthase (Homo sapiens, UniProt P49327)
# Test: Inhibition of fatty acid synthase
# Chain of Fatty acid synthase (P49327 whole entry): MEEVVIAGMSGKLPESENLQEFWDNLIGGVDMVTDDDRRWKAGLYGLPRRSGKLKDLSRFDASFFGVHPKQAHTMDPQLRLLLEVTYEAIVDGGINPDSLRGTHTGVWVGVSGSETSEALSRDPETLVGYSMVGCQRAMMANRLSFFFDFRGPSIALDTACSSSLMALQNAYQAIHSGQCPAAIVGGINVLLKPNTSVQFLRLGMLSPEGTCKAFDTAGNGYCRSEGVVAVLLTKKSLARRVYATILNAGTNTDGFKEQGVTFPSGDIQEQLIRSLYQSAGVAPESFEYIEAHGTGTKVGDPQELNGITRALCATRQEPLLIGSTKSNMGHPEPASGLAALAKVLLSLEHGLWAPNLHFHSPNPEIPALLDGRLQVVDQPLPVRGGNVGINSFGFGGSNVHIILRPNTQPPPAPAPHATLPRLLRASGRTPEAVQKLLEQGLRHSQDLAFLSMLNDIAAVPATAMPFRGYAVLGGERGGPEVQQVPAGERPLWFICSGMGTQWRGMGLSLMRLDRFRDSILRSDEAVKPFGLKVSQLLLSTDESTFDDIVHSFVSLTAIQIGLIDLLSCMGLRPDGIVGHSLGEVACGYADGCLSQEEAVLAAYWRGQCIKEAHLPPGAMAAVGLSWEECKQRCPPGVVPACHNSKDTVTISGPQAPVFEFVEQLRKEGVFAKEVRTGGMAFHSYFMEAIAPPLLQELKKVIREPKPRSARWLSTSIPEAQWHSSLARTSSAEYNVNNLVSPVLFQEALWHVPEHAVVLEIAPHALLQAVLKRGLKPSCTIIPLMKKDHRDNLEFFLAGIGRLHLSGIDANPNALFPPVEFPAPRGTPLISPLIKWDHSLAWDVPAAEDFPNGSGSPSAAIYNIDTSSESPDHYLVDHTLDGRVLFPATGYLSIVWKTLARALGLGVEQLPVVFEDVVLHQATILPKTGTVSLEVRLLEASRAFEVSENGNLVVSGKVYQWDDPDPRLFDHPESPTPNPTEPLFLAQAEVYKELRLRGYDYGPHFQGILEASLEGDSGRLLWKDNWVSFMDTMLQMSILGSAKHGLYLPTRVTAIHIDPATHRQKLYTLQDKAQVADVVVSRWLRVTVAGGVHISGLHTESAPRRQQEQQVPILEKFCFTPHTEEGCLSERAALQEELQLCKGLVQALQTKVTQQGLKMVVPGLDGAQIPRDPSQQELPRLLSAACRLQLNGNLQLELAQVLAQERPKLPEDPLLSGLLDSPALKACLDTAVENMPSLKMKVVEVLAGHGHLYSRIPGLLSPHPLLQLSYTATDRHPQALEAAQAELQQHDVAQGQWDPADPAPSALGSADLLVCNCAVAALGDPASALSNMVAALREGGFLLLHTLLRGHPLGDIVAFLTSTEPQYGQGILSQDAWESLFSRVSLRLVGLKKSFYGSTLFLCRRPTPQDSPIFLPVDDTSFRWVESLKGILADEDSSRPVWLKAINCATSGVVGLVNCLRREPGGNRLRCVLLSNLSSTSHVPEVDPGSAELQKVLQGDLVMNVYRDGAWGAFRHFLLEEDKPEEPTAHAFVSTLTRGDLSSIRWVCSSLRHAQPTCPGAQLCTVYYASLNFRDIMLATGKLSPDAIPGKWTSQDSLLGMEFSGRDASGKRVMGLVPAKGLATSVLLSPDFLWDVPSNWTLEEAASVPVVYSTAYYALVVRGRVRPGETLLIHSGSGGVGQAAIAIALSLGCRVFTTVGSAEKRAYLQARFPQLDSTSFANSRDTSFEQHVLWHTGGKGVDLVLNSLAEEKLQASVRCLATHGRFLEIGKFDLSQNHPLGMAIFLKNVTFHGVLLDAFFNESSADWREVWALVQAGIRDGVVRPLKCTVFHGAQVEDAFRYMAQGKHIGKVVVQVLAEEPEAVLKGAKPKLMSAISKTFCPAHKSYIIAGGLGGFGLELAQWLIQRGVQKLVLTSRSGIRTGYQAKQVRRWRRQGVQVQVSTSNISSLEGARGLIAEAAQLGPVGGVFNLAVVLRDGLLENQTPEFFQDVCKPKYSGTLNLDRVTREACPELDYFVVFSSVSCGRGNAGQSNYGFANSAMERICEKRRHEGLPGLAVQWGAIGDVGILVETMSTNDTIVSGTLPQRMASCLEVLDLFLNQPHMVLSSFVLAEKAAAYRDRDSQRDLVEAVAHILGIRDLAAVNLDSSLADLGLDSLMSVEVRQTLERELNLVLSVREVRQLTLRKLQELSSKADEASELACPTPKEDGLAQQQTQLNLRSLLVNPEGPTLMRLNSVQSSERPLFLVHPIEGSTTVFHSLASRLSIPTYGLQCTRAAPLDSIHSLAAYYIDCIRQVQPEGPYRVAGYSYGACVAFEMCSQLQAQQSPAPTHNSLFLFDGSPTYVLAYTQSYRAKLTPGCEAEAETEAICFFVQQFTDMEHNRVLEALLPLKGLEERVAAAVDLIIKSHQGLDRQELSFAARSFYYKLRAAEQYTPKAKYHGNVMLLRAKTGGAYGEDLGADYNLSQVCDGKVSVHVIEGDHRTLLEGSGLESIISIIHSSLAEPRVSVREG
row,Compound,IC50 [nM]
1,C/C=C/C/C=C/CCC(=O)[C@H]1O[C@H]1C(N)=O [CERULENIN],851
2,COc1ccc([C@@H]2CC(=O)c3c(O)c(C)c(O[C@@H]4O[C@H](CO[C@@H]5OC[C@H](O)[C@H](O)[C@H]5O)[C@@H](O)[C@H](O)[C@H]4O)c(C)c3O2)cc1 [MICONIOSIDE A],> 82200

# From ChEMBL document CHEMBL1158883, “Flavanone glycosides from Miconia trailii” (J Nat Prod, 2003)
